According to patent US20090068286A1, “METHOD OF TREATING CANCER BY ADMINISTRATION OF 5-SUBSTITUTED NUCLEOSIDES” (RESprotect, GmbH, priority 2007, published 2009):
Entries after “also recorded” stand apart in the source; their conditions may differ.

Columns and labels:
[1] = test system: AH13r tumor cells; test: Hoechst 33258/propidium iodide (Hopi) double coloration for apoptosis; format: cell-based, rat; settings: co-treatment of cytostatic with BVDU
Source text: The indication that the reduction in cell number is based on apoptosis, was detected by means of Hoechst 33258/propidium iodide (Hopi) double coloration.

[2] = test system: JUN-D; test: Western Blot analysis of survival pathways: JUN-D; format: cell-based
Protocol: (§1) Different “survival pathways” were tested by means of Western Blot analysis. The analyses were implemented according to standard methods, as is described in Sambrook et al., 2001, Molecular Cloning (3rd ed.). Antibody dilutions: P-STAT3 (cell signaling) 1: 500, JUN-D (Santa Cruz, Calif.) 1: 1,000.
(§2) The densitometrically determined content of oncogene proteins JUN-D and STAT3 was reduced by a quarter or two thirds after DOX treatment in the recovery phase (r=recovery phase). In the “recovery” only BVDU is given, no cytostatic.

[3] = test system: STAT3; test: Western Blot analysis of survival pathways: STAT3; format: cell-based; settings: after DOX treatment, recovery phase: only BVDU given, no cytostatic
Protocol: as §1, §2

SMILES: O=c1[nH]c(=O)n([C@H]2C[C@H](O)[C@@H](CO)O2)cc1/C=C/Br [BVDU, (E)-5-(2-bromovinyl)-2′-deoxyuridine]
- Apoptosis (HOPI double coloration) [1]: promotes apoptosis
- Inhibition of MMC induced JUN-D overexpression ([2]; BVDU given in the “recovery” after MMC): complete inhibition
- Reduction of JUN-D protein content (densitometry) ([2]; after DOX treatment, recovery phase: only BVDU given, no cytostatic): approximately one quarter; also recorded: a quarter
- Reduction of STAT3 protein content (densitometry) [3]: approximately two thirds
